This note sets out measurements from PubChem BioAssay (NCI).

What all share (test): inhibition of tumour cell growth, NCI panel, 48 h
Test [1] deals with NCI-H522 lung.
In test [2] the test system is SW-620 colon.
Test [3] relates to KM12 colon.
Test [4] has as its system U251 CNS.
For test [5], the system named is RXF 393 renal.
Test [6] concerns SF-295 CNS.
The test system of test [7] is NCI-H460 lung.
Test [8] relates to SK-MEL-28 melanoma.
The subject of test [9] is M14 melanoma.

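Exposure lasted 48 hours, with cells grown in 96-well plates and compounds tested at five concentrations. GI50 marks 50% less growth. The concentration for full growth arrest is given as TGI.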

Consider `COc1ccc(-c2cc(-c3ccccc3)c(C#N)c(=O)[nH]2)cc1`, for which the TGI in test [1], in [2], in test [3], in test [4], in [5] and in [6] was over 100 µM each time. Further, the TGI in [7], in test [8] and in test [9] was over 100 µM throughout.

Turning to `O=C1c2c(c3c4ccccc4n4c3c3c2c2ccccc2n3C/C=C\C4)C(=O)N1Cc1ccccc1`, the TGI in test [1], in test [2], in test [3], in test [4], in test [5] and in test [6] was over 100 µM in each case. Moreover, the TGI in test [7], in test [8] and in test [9] was over 100 µM in each case.

Consider `OCCc1cnco1`, for which the TGI in [1], in test [2], in test [3], in [4], in test [5] and in test [6] was over 100 µM throughout. Moreover, the TGI in [7], in [8] and in test [9] was over 100 µM throughout.

For the compound `CN(C)c1nc(N(C)C)nc(N(C)CN(C)c2nc(N(C)C)nc(N(C)C)n2)n1`, the TGI in test [1], in test [2], in test [3], in test [4], in test [5] and in test [6] was over 100 µM in each case. Besides, the TGI in test [7], in test [8] and in [9] was over 100 µM throughout.

`O=S(=O)(NC(=S)Nc1ccccc1)c1ccc(N2N=C3c4ccccc4CC3C2c2ccc(Cl)cc2)cc1` (configuration not stated): the GI50 in test [1] was 18.1 µM; in test [2], 29.7 µM; in test [3], 19.4 µM; in [4], 19.7 µM; in [5], 43.1 µM; in [6] it was 35.5 µM. Further, the GI50 in test [7] was 22.2 µM; in test [8], 29.4 µM; in test [9], 36.4 µM. The TGI in [1] is 38.6 µM; in [2], 75.7 µM; in test [3], 55.3 µM; in [4] it was 39.9 µM; in [5], over 100 µM; in test [6], over 100 µM. The TGI in test [7] is 60 µM; in test [8], 77 µM; in test [9], over 100 µM.

On to `O=C1C2Cc3ccccc3CN2C(=O)N1CN1CCN(CN2C(=O)C3Cc4ccccc4CN3C2=O)CC1` (configuration not stated), for which the TGI in test [1], in test [2], in test [3], in test [4], in test [5] and in test [6] was over 100 µM each time. The TGI in [7] and in test [8] was over 100 µM each time.

Regarding `CC1SC2=NC3=C(c4ccccc4C3=O)C(c3ccc(Br)cc3)N2C1=O` (configuration not stated), the TGI was 48.3 µM in test [1]; over 100 µM in test [2]; over 100 µM in test [3]; over 100 µM in test [4]; over 100 µM in test [6]; over 100 µM in test [7]. Moreover, the TGI in [8] and in test [9] was over 100 µM in each case.

In the case of `C#CCOCn1cnc2ncnc(Cl)c21`, the TGI in [1], in test [2], in test [3], in test [4], in [6] and in test [7] was over 100 µM throughout. For the same compound, the TGI in [8] and in [9] was over 100 µM each time.

For the compound `CC(C)C(/C=C/c1ccccc1)=N\NC(=O)N/N=C(/C=C/c1ccccc1)C(C)C`, the TGI in test [1] was 58.6 µM; in test [2] it was over 100 µM; in [3], over 100 µM; in test [4], over 100 µM; in test [6], over 100 µM; in test [7], 33.4 µM. For the same compound, the TGI in [8] and in test [9] was over 100 µM throughout.

Consider `CC(=O)Nc1ccc(-c2nnc(SCC(=O)Nc3ccccc3[N+](=O)[O-])o2)cc1`, for which the TGI in test [1], in [2], in test [3], in test [4], in [5] and in [6] was over 100 µM throughout. For the same compound, the TGI in test [7], in test [8] and in [9] was over 100 µM in each case.

In the case of `CC1(C)CCc2cc3c(cc2O1)OC(C)(C)C1c2c(ccc4c2CCC(C)(C)O4)OC31` (configuration not stated), the TGI in [1], in test [2], in test [3], in [4], in [6] and in test [7] was over 100 µM each time. In test [9], this compound yielded a TGI of over 100 µM.

Turning to `COc1ccc2oc(-c3ccncc3)cc(=O)c2c1`, the TGI in [3], in test [4], in test [5], in test [6], in [7] and in [8] was over 100 µM each time. Further, the TGI in test [9] is over 100 µM.

For the compound `COc1ccc(CNc2nc3ccccc3nc2-c2cccs2)cc1OC`, the TGI in [2], in [4], in [5], in [6], in test [7] and in test [8] was over 100 µM throughout.

As for `Cn1cc2ccccc2c1-c1nc(F)nc(Oc2ccc3c(c2)CC[C@@H]2C3CC[C@]3(C)C(O)CCC23)n1` (some centres not stated), the TGI in [1] stood at 26 µM; in test [2] it was 43.5 µM; in test [4], 28 µM; in [5], 72.3 µM; in [6], 30.2 µM; in [8] it was 33.2 µM. This compound also displayed a TGI in test [9] of 30.1 µM.
